Measured values: patent US20230263822A1, “MODULATION OF FACTOR 11 EXPRESSION” (Ionis Pharmaceuticals, Inc., priority 2008, published 2023)
Strand notation (5' to 3'): a small letter for the sugar, then the base; units joined by * are phosphorothioate-linked, units joined directly phosphodiester-linked; [ ] holds rarer units or linkages, { } end groups; capitals alone tell only the bases. e = 2'-O-(2-methoxyethyl) (MOE); [5mC] = 5-methylcytosine; d = 2'-deoxy (DNA)

Experiments:
Assay type in all cases: cell-based
[1] = tested on: human Factor 11 mRNA; assay: Antisense inhibition of human Factor 11 in HepG2 cells, electroporation, 8,000 nM (Example 30); conditions: electroporation, 8,000 nM antisense oligonucleotide
Method: These microwalk gapmers were tested in vitro. Cultured HepG2 cells at a density of 20,000 cells per well were transfected using electroporation with 8,000 nM antisense oligonucleotide. After a treatment period of approximately 24 hours, RNA was isolated from the cells and Factor 11 mRNA levels were measured by quantitative real-time PCR. Factor 11 mRNA levels were adjusted according to total RNA content, as measured by RIBOGREEN. Results are presented as percent inhibition of Factor 11, relative to untreated control cells.
The chimeric antisense oligonucleotides in Table 44 were designed as 5-10-5 MOE, 5-8-5 and 6-8-6 MOE gapmers. The first two listed gapmers in Table 44 are the original gapmers (ISIS 416850 and ISIS 416858) from which ISIS 445493-445543 were designed via microwalk, and are designated by an asterisk. The 5-10-5 gapmers are 20 nucleotides in length, wherein the central gap segment is comprised of ten 2′-deoxynucleotides and is flanked on both sides (in the 5′ and 3′ directions) by wings comprising five nucleotides each. The 5-8-5 gapmers are 18 nucleotides in length, wherein the central gap segment is comprised of eight 2′-deoxynucleotides and is flanked on both sides (in the 5′ and 3′ directions) by wings comprising five nucleotides each. The 6-8-6 gapmers are 20 nucleotides in length, wherein the central gap segment is comprised of eight 2′-deoxynucleotides and is flanked on both sides (in the 5′ and 3′ directions) by wings comprising six nucleotides each. For each of the motifs (5-10-5, 5-8-5 and 6-8-6), each nucleotide in the 5′ wing segment and each nucleotide in the 3′ wing segment has a 2′-MOE modification. The internucleoside linkages throughout each gapmer are phosphorothioate (P=S) linkages. All cytidine residues throughout each gapmer are 5-methylcytidines. “Human Target start site” indicates the 5′-most nucleotide to which the gapmer is targeted in the human sequence. “Human Target stop site” indicates the 3′-most nucleotide to which the gapmer is targeted in the human sequence. Each gapmer listed in Table 44 is targeted to SEQ ID NO: 1 (GENBANK Accession No. NM_000128.3). Each gapmer is Table 44 is also fully cross-reactive with the rhesus monkey Factor 11 gene sequence, designated herein as SEQ ID NO: 274 (exons 1-15 GENBANK Accession No. NW_001118167.1). ‘Rhesus monkey start site’ indicates the 5′-most nucleotide to which the gapmer is targeted in the rhesus monkey sequence. ‘Rhesus monkey stop site’ indicates the 3′-most nucleotide to which the gapmer is targeted to the rhesus monkey sequence.

[2] = tested on: human Factor 11 mRNA; assay: Antisense inhibition of human Factor 11 in HepG2 cells, lipofectin, 75 nM (Example 1); conditions: 75 nM antisense oligonucleotide, ~24 h, relative to untreated control cells, gapmers targeted to SEQ ID NO: 1
Summary of the method: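 HepG2 cells transfected via lipofectin with 75 nM antisense oligonucleotide (5-10-5 MOE gapmers, 20-mers, phosphorothioate, 5-methylcytidines), treated ~24 h. Factor 11 mRNA quantified by real-time PCR, normalised to RIBOGREEN total RNA; percent inhibition versus untreated cells.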

[3] = tested on: human Factor 11 mRNA; assay: Antisense inhibition of human Factor 11 in HepG2 cells by microwalk gapmers, lipofectin, 75 nM (Example 3); conditions: HepG2 cells, lipofectin, gapmers targeted to nucleobases 1018 to 1042 of SEQ ID NO: 1
Summary of the method: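 HepG2 cells (10,000/well) were transfected via lipofectin with 75 nM 20-mer MOE gapmers (phosphorothioate, 5-methyl-C) for about 24 h. Factor 11 mRNA was measured by qRT-PCR, normalized to RIBOGREEN total RNA, and given as percent inhibition versus untreated cells.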

[4] = tested on: human Factor 11 mRNA; assay: Dose-dependent inhibition of human Factor 11 in HepG2 cells, electroporation 0.7-20 uM (Example 4)
Summary of the method: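 HepG2 cells electroporated with antisense gapmers at 0.7, 2.2, 6.7 and 20 μM, treated ~16 h. Factor 11 mRNA quantified by qRT-PCR (primer probe set RTS 2966), normalised to RIBOGREEN total RNA; expressed as percent inhibition versus untreated control cells.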

[5] = tested on: human Factor 11 mRNA; assay: Dose-dependent inhibition of human Factor 11 in HepG2 cells, lipofectin 9.375-75 nM (Example 4)
Summary of the method: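 HepG2 cells transfected via lipofectin with antisense oligonucleotide at 9.375, 18.75, 37.5 or 75 nM for about 16 h. Factor 11 mRNA quantified by real-time RT-PCR (primer probe set RTS 2966) and normalized to total RNA (RIBOGREEN). Results expressed as percent inhibition versus untreated cells.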

Substance	Percent inhibition of human Factor 11 mRNA levels [1] [%]	also measured
445494 (antisense e[5mC]*eA*e[5mC]*eA*eG*eT*dT*dT*d[5mC]*dT*dG*dG*d[5mC]*dA*eG*eG*e[5mC]*e[5mC]*eT*e[5mC]) [compound 445494]	85	
445543 (antisense e[5mC]*eT*eG*eG*e[5mC]*dA*dG*d[5mC]*dG*dG*dA*d[5mC]*dG*eG*e[5mC]*eA*eT*eT) [compound 445543]	74	
445540 (antisense eG*e[5mC]*eA*eG*e[5mC]*dG*dG*dA*d[5mC]*dG*dG*d[5mC]*dA*eT*eT*eG*eG*eT) [compound 445540]	74	
445536 (antisense e[5mC]*eG*eG*eA*e[5mC]*dG*dG*d[5mC]*dA*dT*dT*dG*dG*eT*eG*e[5mC]*eA*e[5mC]) [compound 445536]	82	
413474 (antisense eA*eG*e[5mC]*eA*eA*d[5mC]*d[5mC]*dG*dG*dG*dA*dT*dG*dA*dT*eG*eA*eG*eT*eG) [compound 413474]		% inhibition [2]: 84%; % inhibition [3]: 93%; IC50 [4]: 6.9 µM; percent inhibition of Factor 11 at 0.7 μM ([4]; 0.7 μM, relative to untreated control cells): 0%; percent inhibition of Factor 11 at 2.2 μM ([4]; 2.2 μM, relative to untreated control cells): 5%; percent inhibition of Factor 11 at 6.7 μM ([4]; 6.7 μM, relative to untreated control cells): 52%; percent inhibition of Factor 11 at 20 μM ([4]; 20 μM, relative to untreated control cells): 81%; IC50 [5]: 0.028 µM; percent inhibition of Factor 11 at 9.375 nM ([5]; 9.375 nM, relative to untreated control cells): 29%; percent inhibition of Factor 11 at 18.75 nM ([5]; 18.75 nM, relative to untreated control cells): 44%; percent inhibition of Factor 11 at 37.5 nM ([5]; 37.5 nM, relative to untreated control cells): 57%; percent inhibition of Factor 11 at 75 nM ([5]; 75 nM, relative to untreated control cells): 67%
445496 (antisense eT*eG*e[5mC]*eA*e[5mC]*eA*dG*dT*dT*dT*d[5mC]*dT*dG*dG*e[5mC]*eA*eG*eG*e[5mC]*e[5mC]) [compound 445496]	87	
445520 (antisense eA*e[5mC]*eA*eG*eT*dT*dT*d[5mC]*dT*dG*dG*d[5mC]*dA*eG*eG*e[5mC]*e[5mC]*eT) [compound 445520]	82	
445523 (antisense eT*eG*e[5mC]*eA*e[5mC]*dA*dG*dT*dT*dT*d[5mC]*dT*dG*eG*e[5mC]*eA*eG*eG) [compound 445523]	73	
445521 (antisense e[5mC]*eA*e[5mC]*eA*eG*dT*dT*dT*d[5mC]*dT*dG*dG*d[5mC]*eA*eG*eG*e[5mC]*e[5mC]) [compound 445521]	87	
445533 (antisense eA*e[5mC]*eG*eG*e[5mC]*dA*dT*dT*dG*dG*dT*dG*d[5mC]*eA*e[5mC]*eA*eG*eT) [compound 445533]	87	
445508 (antisense eG*eG*eA*e[5mC]*eG*eG*d[5mC]*dA*dT*dT*dG*dG*dT*dG*e[5mC]*eA*e[5mC]*eA*eG*eT) [compound 445508]	81	
445539 (antisense e[5mC]*eA*eG*e[5mC]*eG*dG*dA*d[5mC]*dG*dG*d[5mC]*dA*dT*eT*eG*eG*eT*eG) [compound 445539]	79	
445511 (antisense eA*eG*e[5mC]*eG*eG*eA*d[5mC]*dG*dG*d[5mC]*dA*dT*dT*dG*eG*eT*eG*e[5mC]*eA*e[5mC]) [compound 445511]	77	
445517 (antisense eA*e[5mC]*eT*eG*eG*e[5mC]*dA*dG*d[5mC]*dG*dG*dA*d[5mC]*dG*eG*e[5mC]*eA*eT*eT*eG) [compound 445517]	74	
445502 (antisense e[5mC]*eA*eT*eT*eG*eG*dT*dG*d[5mC]*dA*d[5mC]*dA*dG*dT*eT*eT*e[5mC]*eT*eG*eG) [compound 445502]	83	
445529 (antisense e[5mC]*eA*eT*eT*eG*dG*dT*dG*d[5mC]*dA*d[5mC]*dA*dG*eT*eT*eT*e[5mC]*eT) [compound 445529]	85	
445538 (antisense eA*eG*e[5mC]*eG*eG*dA*d[5mC]*dG*dG*d[5mC]*dA*dT*dT*eG*eG*eT*eG*e[5mC]) [compound 445538]	80	
445507 (antisense eG*eA*e[5mC]*eG*eG*e[5mC]*dA*dT*dT*dG*dG*dT*dG*d[5mC]*eA*e[5mC]*eA*eG*eT*eT) [compound 445507]	85	
445524 (antisense eG*eT*eG*e[5mC]*eA*d[5mC]*dA*dG*dT*dT*dT*d[5mC]*dT*eG*eG*e[5mC]*eA*eG) [compound 445524]	75	
445534 (antisense eG*eA*e[5mC]*eG*eG*d[5mC]*dA*dT*dT*dG*dG*dT*dG*e[5mC]*eA*e[5mC]*eA*eG) [compound 445534]	82	
445500 (antisense eT*eT*eG*eG*eT*eG*d[5mC]*dA*d[5mC]*dA*dG*dT*dT*dT*e[5mC]*eT*eG*eG*e[5mC]*eA) [compound 445500]	81	
445515 (antisense eT*eG*eG*e[5mC]*eA*eG*d[5mC]*dG*dG*dA*d[5mC]*dG*dG*d[5mC]*eA*eT*eT*eG*eG*eT) [compound 445515]	75	
445518 (antisense eA*eG*eT*eT*eT*d[5mC]*dT*dG*dG*d[5mC]*dA*dG*dG*e[5mC]*e[5mC]*eT*e[5mC]*eG) [compound 445518]	75	
445537 (antisense eG*e[5mC]*eG*eG*eA*d[5mC]*dG*dG*d[5mC]*dA*dT*dT*dG*eG*eT*eG*e[5mC]*eA) [compound 445537]	78	
445510 (antisense eG*e[5mC]*eG*eG*eA*e[5mC]*dG*dG*d[5mC]*dA*dT*dT*dG*dG*eT*eG*e[5mC]*eA*e[5mC]*eA) [compound 445510]	88	
445501 (antisense eA*eT*eT*eG*eG*eT*dG*d[5mC]*dA*d[5mC]*dA*dG*dT*dT*eT*e[5mC]*eT*eG*eG*e[5mC]) [compound 445501]	83	
445541 (antisense eG*eG*e[5mC]*eA*eG*d[5mC]*dG*dG*dA*d[5mC]*dG*dG*d[5mC]*eA*eT*eT*eG*eG) [compound 445541]	80	
445499 (antisense eT*eG*eG*eT*eG*e[5mC]*dA*d[5mC]*dA*dG*dT*dT*dT*d[5mC]*eT*eG*eG*e[5mC]*eA*eG) [compound 445499]	75	
445526 (antisense eT*eG*eG*eT*eG*d[5mC]*dA*d[5mC]*dA*dG*dT*dT*dT*e[5mC]*eT*eG*eG*e[5mC]) [compound 445526]	81	
